Assay results reported in patent US12077503B2, “Substituted cyclic amides and their use as herbicides” (FMC CORPORATION, priority 2015, dated 2024).

Columns and labels:
Format in all cases: in vivo
[1] = system: wheat (Triticum aestivum); assay: Test A postemergence; conditions: Triticum aestivum, post-emergence, 240 h
Procedure, shortened: (§1)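 Visual injury scores from 0, no effect, to 100, complete control, were assigned versus untreated controls roughly 10 d after treatment in the greenhouse. Test chemicals, formulated with surfactant in a non-phytotoxic solvent, were applied to planted seeds as a preemergence soil spray or postemergence to one- to two-leaf plants 2 to 10 cm tall, in loam–sand soil.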

corn (Zea mays) = assay: Test A postemergence; conditions: Zea mays, post-emergence, 240 h
Procedure, shortened: as §1

[2] = system: barnyardgrass (Echinochloa crus-galli); assay: Test A postemergence; conditions: Echinochloa crus-galli, post-emergence, 240 h
Procedure, shortened: as §1

[3] = system: giant foxtail (Setaria faberii); assay: Test A postemergence; conditions: Setaria faberi, post-emergence, 240 h
Procedure, shortened: as §1

[4] = system: ryegrass, Italian (Italian ryegrass, Lolium multiflorum); assay: Test A postemergence; conditions: Lolium multiflorum, post-emergence, 240 h
Procedure, shortened: as §1

[5] = system: blackgrass (Alopecurus myosuroides); assay: Test A postemergence; conditions: Alopecurus myosuroides, post-emergence, 240 h
Procedure, shortened: as §1

[6] = system: ragweed (common ragweed, Ambrosia elatior); assay: Test A postemergence; conditions: Ambrosia artemisiifolia, post-emergence, 240 h
Procedure, shortened: as §1

Kochia (Kochia scoparia) [7] = assay: Test A postemergence; conditions: Bassia scoparia, post-emergence, 240 h
Procedure, shortened: as §1

[8] = system: Galium (catchweed bedstraw, Galium aparine); assay: Test A postemergence; conditions: Galium, post-emergence, 240 h
Procedure, shortened: as §1

[9] = system: pigweed (Amaranthus retroflexus); assay: Test A postemergence; conditions: Amaranthus retroflexus, post-emergence, 240 h
Procedure, shortened: as §1

[10] = system: barnyardgrass (Echinochloa crus-galli); assay: Test B flooded paddy test; conditions: Echinochloa crus-galli, 250 g ai/ha, Flood; 0 to 100 scale where 0 is no effect and 100 is complete control; read-out: Barnyardgrass plant response rating
Procedure, shortened: (§2)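 Response scored visually against untreated controls, 0 = no effect and 100 = complete control, 13–15 d after treatment in the greenhouse. Compounds added to paddy water held 3 cm above soil surface. Treatment given at 2-leaf stage.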

rice (Oryra sativa) = assay: Test B flooded paddy test; conditions: Oryza sativa, 250 g ai/ha, Flood; 0 to 100 scale where 0 is no effect and 100 is complete control; read-out: Rice plant response rating
Procedure, shortened: as §2

[11] = system: ducksalad (Heteranthera limosa); assay: Test B flooded paddy test; conditions: Heteranthera limosa, 250 g ai/ha, Flood; 0 to 100 scale where 0 is no effect and 100 is complete control; read-out: Ducksalad plant response rating
Procedure, shortened: as §2

[12] = system: sedge, umbrella (small-flower umbrella sedge, Cyperus difformis); assay: Test B flooded paddy test; conditions: Cyperus difformis, 250 g ai/ha, Flood; 0 to 100 scale where 0 is no effect and 100 is complete control; read-out: Sedge, Umbrella plant response rating
Procedure, shortened: as §2

[13] = system: barnyardgrass (Echinochloa crus-galli); assay: Test A preemergence; conditions: Echinochloa crus-galli, pre-emergence, 240 h, 0 to 100 scale where 0 is no effect and 100 is complete control, read-out: Barnyardgrass plant response rating
Procedure, shortened: as §1

[14] = system: giant foxtail (Setaria faberii); assay: Test A preemergence; conditions: Setaria faberi, pre-emergence, 240 h, 0 to 100 scale where 0 is no effect and 100 is complete control, read-out: Foxtail, Giant plant response rating
Procedure, shortened: as §1

[15] = system: ryegrass, Italian (Italian ryegrass, Lolium multiflorum); assay: Test A preemergence; conditions: Lolium multiflorum, pre-emergence, 240 h, 0 to 100 scale where 0 is no effect and 100 is complete control, read-out: Ryegrass, Italian plant response rating
Procedure, shortened: as §1

[16] = system: ragweed (common ragweed, Ambrosia elatior); assay: Test A preemergence; conditions: Ambrosia artemisiifolia, pre-emergence, 240 h, 0 to 100 scale where 0 is no effect and 100 is complete control, read-out: Ragweed plant response rating
Procedure, shortened: as §1

Kochia (Kochia scoparia) [17] = assay: Test A preemergence; conditions: Bassia scoparia, pre-emergence, 240 h, 0 to 100 scale where 0 is no effect and 100 is complete control, read-out: Kochia plant response rating
Procedure, shortened: as §1

[18] = system: pigweed (Amaranthus retroflexus); assay: Test A preemergence; conditions: Amaranthus retroflexus, pre-emergence, 240 h, 0 to 100 scale where 0 is no effect and 100 is complete control, read-out: Pigweed plant response rating
[19] = 125 g ai/ha, preemergence, approx. 10 d

CN1C[C@H](c2csc3c2CCOC3)[C@@H](C(=O)Nc2ccccc2S(C)(=O)=O)C1=O [Compound 1078] showed a plant injury at 125 g/ha ([1]; 125 g ai/ha, postemergence, visual injury on 0 to 100 scale (0 no effect, 100 complete control), approx. 10 d, read-out: Wheat plant response rating) of 0%, a plant injury at 31 g/ha ([1]; Postemergence, 31 g ai/ha, visual injury after approx. 10 d, 0 to 100 scale, 0 no effect, 100 complete control, read-out: Plant response rating, Wheat) of 0% and a plant injury at 125 g/ha (corn (Zea mays); 125 g ai/ha, postemergence, visual injury on 0 to 100 scale (0 no effect, 100 complete control), approx. 10 d, read-out: Corn plant response rating) of 0%. It also gave a Corn plant response rating (crop injury, 0 = no effect, 100 = complete kill) at 31 g/ha (corn (Zea mays); Postemergence, 31 g ai/ha, visual injury after approx. 10 d, 0 to 100 scale, 0 no effect, 100 complete control) of 0%, a pest or weed control at 125 g/ha ([2]; 125 g ai/ha, postemergence, visual injury on 0 to 100 scale (0 no effect, 100 complete control), approx. 10 d, read-out: Barnyardgrass plant response rating) of 10% and a pest or weed control at 31 g/ha ([2]; Postemergence, 31 g ai/ha, visual injury after approx. 10 d, 0 to 100 scale, 0 no effect, 100 complete control, read-out: Plant response rating, Barnyardgrass) of 0%. It also gave a pest or weed control at 125 g/ha ([3]; 125 g ai/ha, postemergence, visual injury on 0 to 100 scale (0 no effect, 100 complete control), approx. 10 d, read-out: Foxtail, Giant plant response rating) of 0%, a pest or weed control at 31 g/ha ([3]; Postemergence, 31 g ai/ha, visual injury after approx. 10 d, 0 to 100 scale, 0 no effect, 100 complete control, read-out: Plant response rating, Foxtail, Giant) of 0% and a pest or weed control at 125 g/ha ([4]; 125 g ai/ha, postemergence, visual injury on 0 to 100 scale (0 no effect, 100 complete control), approx. 10 d, read-out: Ryegrass, Italian plant response rating) of 0%. For the same molecule, the pest or weed control at 31 g/ha ([4]; Postemergence, 31 g ai/ha, visual injury after approx. 10 d, 0 to 100 scale, 0 no effect, 100 complete control, read-out: Plant response rating, Ryegrass, Italian) was 0%, the pest or weed control at 125 g/ha ([5]; 125 g ai/ha, postemergence, visual injury on 0 to 100 scale (0 no effect, 100 complete control), approx. 10 d, read-out: Blackgrass plant response rating) was 0% and the pest or weed control at 31 g/ha ([5]; Postemergence, 31 g ai/ha, visual injury after approx. 10 d, 0 to 100 scale, 0 no effect, 100 complete control, read-out: Plant response rating, Blackgrass) was 0%. For the same molecule, the pest or weed control at 125 g/ha ([6]; 125 g ai/ha, postemergence, visual injury on 0 to 100 scale (0 no effect, 100 complete control), approx. 10 d, read-out: Ragweed plant response rating) was 0%, the pest or weed control at 31 g/ha ([6]; Postemergence, 31 g ai/ha, visual injury after approx. 10 d, 0 to 100 scale, 0 no effect, 100 complete control, read-out: Plant response rating, Ragweed) was 0% and the pest or weed control at 125 g/ha (Kochia (Kochia scoparia) [7]; 125 g ai/ha, postemergence, visual injury on 0 to 100 scale (0 no effect, 100 complete control), approx. 10 d, read-out: Kochia plant response rating) was 0%. For the same molecule, the pest or weed control at 31 g/ha (Kochia (Kochia scoparia) [7]; Postemergence, 31 g ai/ha, visual injury after approx. 10 d, 0 to 100 scale, 0 no effect, 100 complete control, read-out: Plant response rating, Kochia) was 0%, the pest or weed control at 125 g/ha ([8]; 125 g ai/ha, postemergence, visual injury on 0 to 100 scale (0 no effect, 100 complete control), approx. 10 d, read-out: Galium plant response rating) was 0% and the pest or weed control at 31 g/ha ([8]; Postemergence, 31 g ai/ha, visual injury after approx. 10 d, 0 to 100 scale, 0 no effect, 100 complete control, read-out: Plant response rating, Galium) was 0%. The pest or weed control at 125 g/ha ([9]; 125 g ai/ha, postemergence, visual injury on 0 to 100 scale (0 no effect, 100 complete control), approx. 10 d, read-out: Pigweed plant response rating) was 0%, the pest or weed control at 31 g/ha ([9]; Postemergence, 31 g ai/ha, visual injury after approx. 10 d, 0 to 100 scale, 0 no effect, 100 complete control, read-out: Plant response rating, Pigweed) was 0% and the pest or weed control at 250 g/ha [10] was 30%. The pest or weed control at 250 g/ha (rice (Oryra sativa)) was 0%, the pest or weed control at 250 g/ha [11] was 0% and the pest or weed control at 250 g/ha [12] was 0%. The pest or weed control at 31 g/ha ([13]; 31 g ai/ha, Preemergence) was 0%, the pest or weed control at 125 g/ha [13, 19] was 0% and the pest or weed control at 31 g/ha ([14]; 31 g ai/ha, Preemergence) was 0%. The pest or weed control at 125 g/ha [14, 19] was 0%, the pest or weed control at 31 g/ha ([15]; 31 g ai/ha, Preemergence) was 0% and the pest or weed control at 125 g/ha [15, 19] was 0%. For the same molecule, the pest or weed control at 31 g/ha ([16]; 31 g ai/ha, Preemergence) was 0%, the pest or weed control at 125 g/ha [16, 19] was 0% and the pest or weed control at 31 g/ha (Kochia (Kochia scoparia) [17]; 31 g ai/ha, Preemergence) was 0%. For the same molecule, the pest or weed control at 125 g/ha (Kochia (Kochia scoparia) [17]; [19]) was 0%, the pest or weed control at 31 g/ha ([18]; 31 g ai/ha, Preemergence) was 0% and the pest or weed control at 125 g/ha [18, 19] was 0%.
